Experimental data from PMC10996005, “Identification and Development of Cyclic Peptide Inhibitors of Hypoxia Inducible Factors 1 and 2 That Disrupt Hypoxia-Response Signaling in Cancer Cells” (Journal of the American Chemical Society, 2024).
Entries after “also recorded” stand apart in the source; their conditions may differ. Where a SMILES comes first, the peptide text is derived from it. [ ]: non-standard residue; d: D form. Phe(4-I) = N[C@@H](Cc1ccc(I)cc1)C(=O)O

Experiments:
Format in all cases: cell-based
HIF-1α/HIF-1β PPI = target: T1, HIF-1α/HIF-1β PPI (Homo sapiens, UniProt Q16665); experiment: Proximity-ligation assay (PLA) in DFX-treated HeLa cells; conditions: 50 μM compound vs DMSO
T1 construct: endogenous in cells; host or cells: HeLa
T1 sequence (Q16665 whole entry): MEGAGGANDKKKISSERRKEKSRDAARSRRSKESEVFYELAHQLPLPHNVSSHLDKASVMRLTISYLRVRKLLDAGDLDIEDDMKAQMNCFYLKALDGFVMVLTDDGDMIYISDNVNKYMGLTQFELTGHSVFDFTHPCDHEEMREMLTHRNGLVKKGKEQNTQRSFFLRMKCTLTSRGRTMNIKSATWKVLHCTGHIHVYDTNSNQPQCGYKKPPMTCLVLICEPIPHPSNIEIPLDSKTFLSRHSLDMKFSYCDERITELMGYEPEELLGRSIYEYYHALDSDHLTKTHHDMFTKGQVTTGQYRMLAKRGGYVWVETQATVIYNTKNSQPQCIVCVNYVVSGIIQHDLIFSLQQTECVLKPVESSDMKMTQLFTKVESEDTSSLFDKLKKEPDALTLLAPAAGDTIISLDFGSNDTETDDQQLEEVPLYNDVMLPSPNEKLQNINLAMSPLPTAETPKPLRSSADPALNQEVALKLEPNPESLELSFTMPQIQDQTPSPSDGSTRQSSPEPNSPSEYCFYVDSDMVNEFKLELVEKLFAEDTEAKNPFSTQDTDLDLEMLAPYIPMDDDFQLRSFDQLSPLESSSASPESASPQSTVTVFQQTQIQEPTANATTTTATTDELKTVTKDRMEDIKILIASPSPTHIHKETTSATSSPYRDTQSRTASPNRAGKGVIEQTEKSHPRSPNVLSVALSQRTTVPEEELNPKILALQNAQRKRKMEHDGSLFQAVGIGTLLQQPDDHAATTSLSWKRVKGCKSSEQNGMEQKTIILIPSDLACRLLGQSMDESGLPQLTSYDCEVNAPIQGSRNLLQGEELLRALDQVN
Procedure: We used a previously reported[26] proximity-ligation assay (PLA) to assess whether cyclo-CRLII(4-iodo)F disrupts the HIF-1α/HIF-1β PPI in cells. HeLa cells were treated with the hypoxia mimic desferrioxamine (DFX) and treated with either DMSO (control) or 50 μM of cyclo-CRLII(4-iodo)F; in the control-treated samples, we observed the red puncta associated with the PLA signal from the targeted PPI (Figure 6c, upper panels).
All reagents were purchased from Fisher Scientific or Sigma Aldrich UK unless specified otherwise.
Restriction enzymes and microbiology reagents were purchased from New England Biolabs Inc., Fisher Scientific (UK) or Promega (UK) and were used as directed by the manufacturer. Primers and oligonucleotides were synthesised by Integrated DNA Technologies (UK). DNA sequencing was carried out by Eurofins MWG Operon (Germany).
Construction of the RTHS and SICLOPPS library, screening, purification of recombinant HIF proteins, and the PLA was conducted as previously described in Miranda et al., J. Am. Chem. Soc., 2013, 135(28); […]
The labelled protein was separated from unreacted dye by elution through a PD minitrap G-25 column (GE healthcare). […] Extent of labelling was measured by the absorbance obtained using the UV-vis mode on a NanoDrop ND-1000 Spectrophotometer (NanoDrop Technologies, USA). […]

CAIX in HeLa cells = experiment: qPCR of CAIX in HeLa cells; conditions: hypoxic HeLa cells, vs DMSO-treated hypoxic cells
Procedure: (§1) The effect of our lead inhibitor on hypoxia-response signaling was measured by qPCR in cancer cell lines. Cells were treated with either 2 μM of an analogue of the HIF-2-specific inhibitor belzutifan, PT2399 (control), or 50 μM of cyclo-CRLII(4-iodo)F, incubated in hypoxia for 24 h, and the levels of the hypoxia-response genes CAIX([41],[42]) and VEGF([43]) were measured by qPCR. We observed a 51% drop in CAIX transcription and a 43% drop in VEGF transcription in hypoxic MCF-7 (breast cancer) cells treated with 50 μM of cyclo-CRLII(4-iodo)F versus hypoxic MCF-7 cells treated with DMSO only (Figure 6e). […] We also observed a 49% drop in CAIX expression in hypoxic HeLa (cervical cancer) cells treated with cyclo-CRLII(4-iodo)F (Figure S9b). […] We observed a 35% drop in HIF-2-driven VEGF transcription in 786-O cells treated with 50 μM of cyclo-CRLII(4-iodo)F compared to a 50% decrease in 786-O cells treated with PT2399.
Figure S9. (a) The effect of cyclo-CRLII(4-iodo)F on the viability of T-ReX-293 cells. […]
The Flp-In-HRE-eYFP cells were plated on 24-well plates at 80% confluency and incubated overnight under normoxic conditions. […] An equal amount of the supernatant from each treatment was plated on a 96-well plate, and the emission of eYFP was measured using a microplate reader. […]

[1] = tested on: CAIX and VEGF genes in MCF-7 cells; experiment: qPCR of hypoxia-response genes in MCF-7 cells; conditions: hypoxic MCF-7 cells, 50 μM, vs DMSO-treated hypoxic cells
Procedure: as §1, with “PT2399. […]” for “PT2399.”
Realtime PCR (qPCR) Assay
Cells were plated on 6cm dishes at 80% confluency and incubated overnight under normoxic conditions. The cells were then treated with compound and incubated for 18 hours in hypoxic conditions. After treatment, the cells were washed with PBS and lysed under hypoxic conditions. The total RNA was extracted from the cells using a commercial RNA extraction kit (Fisher Scientific) following the manufacturer's instructions. A commercial reverse transcription kit (Promega) was used to generate cDNA. The MyTaq™ Mix master mix and appropriate primers targeting CAIX and VEGF were used to perform the qPCR reaction using a qPCR machine (Bio-Rad).

SMILES: CC[C@H](C)[C@@H]1NC(=O)[C@H](CC(C)C)NC(=O)[C@H](CCCNC(=N)N)NC(=O)[C@H](CS)NC(=O)[C@H](Cc2ccc(I)cc2)NC(=O)[C@H]([C@@H](C)CC)NC1=O [cyclo-CRLII(4-iodo)F] (cyclo(CRLII[Phe(4-I)]))
- PLA signal (red puncta) of the HIF-1α/HIF-1β PPI (HIF-1α/HIF-1β PPI): red puncta are absent; also recorded: the red puncta were not observed
- drop in CAIX expression (CAIX in HeLa cells): 49%
- drop in CAIX transcription [1]: 51%
- drop in VEGF transcription [1]: 43%
